Laboratory results as given in US9284345B2 (priority 2007, dated 2016).
Values joined by “and” are separate entries in the source; they are usually repeats but may differ in a detail not shown here. Identical values can stand only once.

Legend:
Immature Rat CX = conditions: for In Vivo Agonist % Change vs CX (DHT = +100%) SV / In Vivo Agonist % Change vs CX (DHT = +100%) VP: po
Human Androgen Receptor = target: T1, Human Androgen Receptor (Homo sapiens, UniProt P10275); assay type: binding
T1 construct: expressed in transfected cells; host or cells: HEK-293 cells stably transfected with the pCMVneo-hAR plasmid (G-418 selection); cytosol used
T1 sequence (P10275 1-920): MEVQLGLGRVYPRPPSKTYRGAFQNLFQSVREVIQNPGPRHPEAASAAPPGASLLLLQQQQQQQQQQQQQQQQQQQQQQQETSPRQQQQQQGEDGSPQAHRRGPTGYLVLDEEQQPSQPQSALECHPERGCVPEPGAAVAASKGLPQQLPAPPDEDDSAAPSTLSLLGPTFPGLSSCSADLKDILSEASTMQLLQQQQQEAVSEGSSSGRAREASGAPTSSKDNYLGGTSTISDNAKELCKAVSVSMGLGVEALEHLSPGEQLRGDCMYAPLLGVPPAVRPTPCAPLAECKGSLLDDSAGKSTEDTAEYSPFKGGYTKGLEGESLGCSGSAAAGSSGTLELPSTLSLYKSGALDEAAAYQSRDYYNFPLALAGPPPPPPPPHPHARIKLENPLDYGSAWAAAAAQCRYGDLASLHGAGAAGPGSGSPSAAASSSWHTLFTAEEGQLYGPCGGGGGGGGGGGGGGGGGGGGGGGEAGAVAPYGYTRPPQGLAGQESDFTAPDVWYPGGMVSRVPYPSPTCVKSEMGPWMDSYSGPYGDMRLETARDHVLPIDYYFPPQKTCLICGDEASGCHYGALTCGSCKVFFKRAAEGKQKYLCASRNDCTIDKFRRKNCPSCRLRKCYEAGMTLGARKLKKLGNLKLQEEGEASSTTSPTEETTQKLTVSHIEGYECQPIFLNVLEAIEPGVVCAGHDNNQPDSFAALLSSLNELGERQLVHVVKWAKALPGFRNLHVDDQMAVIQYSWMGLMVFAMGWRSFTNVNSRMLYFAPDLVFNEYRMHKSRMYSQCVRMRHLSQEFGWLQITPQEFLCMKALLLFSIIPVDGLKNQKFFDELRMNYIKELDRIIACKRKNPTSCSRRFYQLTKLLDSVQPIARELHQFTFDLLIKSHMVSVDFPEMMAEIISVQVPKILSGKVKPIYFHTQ

[1] = system: Shionogi mouse mammary carcinoma cells; test: cells; assay type: cell-based; conditions: for Ki: read-out: Shionogi cells Antiandrogenic activity Ki; for % of inh of DHT at 10^−7 M (Basal = 100%): 0.0003 µM
Rat Androgen Receptor = target: T2, Rat Androgen Receptor (Rattus norvegicus, UniProt P15207); test: Androgen receptor binding assay (HAP, [3H]R1881), rat prostate cytosol
T2 construct: ventral prostates collected from 24 h-gonadectomized rats were homogenized in buffer A; from tissue; host or cells: rat ventral prostate cytosol (24 h-gonadectomized rats)
T2 sequence (P15207 1-902): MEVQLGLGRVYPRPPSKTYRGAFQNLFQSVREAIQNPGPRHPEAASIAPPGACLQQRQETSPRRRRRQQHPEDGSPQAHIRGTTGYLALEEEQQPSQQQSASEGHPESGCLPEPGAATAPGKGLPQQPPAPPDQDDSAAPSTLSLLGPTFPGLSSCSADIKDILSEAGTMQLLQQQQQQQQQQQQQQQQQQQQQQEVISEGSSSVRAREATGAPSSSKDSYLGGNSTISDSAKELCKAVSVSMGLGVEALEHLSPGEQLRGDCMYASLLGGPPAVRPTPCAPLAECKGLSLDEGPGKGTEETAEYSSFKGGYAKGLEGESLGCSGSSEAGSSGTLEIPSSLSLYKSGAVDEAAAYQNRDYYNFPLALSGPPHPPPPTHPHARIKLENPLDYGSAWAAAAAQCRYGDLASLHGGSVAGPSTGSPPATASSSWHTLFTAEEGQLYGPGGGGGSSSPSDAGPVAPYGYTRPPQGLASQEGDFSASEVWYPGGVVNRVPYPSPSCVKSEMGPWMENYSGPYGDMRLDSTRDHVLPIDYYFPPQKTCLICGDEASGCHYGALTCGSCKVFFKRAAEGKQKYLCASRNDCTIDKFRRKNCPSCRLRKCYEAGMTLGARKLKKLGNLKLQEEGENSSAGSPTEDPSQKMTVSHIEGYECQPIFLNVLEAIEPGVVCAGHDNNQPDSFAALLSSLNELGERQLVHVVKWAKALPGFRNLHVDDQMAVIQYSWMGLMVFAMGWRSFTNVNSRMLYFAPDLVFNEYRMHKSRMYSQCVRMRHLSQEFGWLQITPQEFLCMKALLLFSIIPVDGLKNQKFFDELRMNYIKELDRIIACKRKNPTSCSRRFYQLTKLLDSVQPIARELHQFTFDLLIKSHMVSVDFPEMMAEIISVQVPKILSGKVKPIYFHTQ
Protocol: On the morning of the binding assay, ventral prostates collected from 24 h-gonadectomized rats were homogenized in buffer A (1 g of tissue in 5 mL) and the homogenate was centrifuged as described above.
Androgen binding is measured using the hydroxylapatite (HAP) assay. In brief, the radioactive steroid [^3H]R1881 solubilized in ethanol is diluted with buffer B (10 mM Tris-HCl, 1.5 mM EDTA disodium salt, 10 mM α-monothioglycerol, pH 7.4). Aliquots of the cell or prostate cytosol preparation (0.1 ml) are then incubated with 5 nM [^3H]R1881 (0.1 ml, ˜100 000 cpm) in the presence or absence of the indicated concentrations of unlabeled compounds (0.1 ml, prepared in buffer B containing 30% ethanol) for 16-18 h at 0-4° C. Triamcinolone acetonide (TAC; 100 nM) is added to mask progesterone receptors. Unbound steroids are separated by incubation for 40 min at 0-4° C. with 0.3 ml HAP prepared in buffer P (50 mM Tris-HCl, 10 mM KH2PO4, pH 7.4). After incubation with HAP and 10 min of centrifugation at 1000×g, the pellet is washed 3 times with 1 ml of buffer P. Thereafter, the radioactivity is extracted from the pellet by incubation at room temperature for 60 min with 1 ml of ethanol. After centrifugation, the supernatant is decanted into a scintillation vial and the pellet is extracted again with ethanol. After the addition of scintillation liquid, the radioactivity is measured in a liquid scintillation counter.

Intact Rat = test: In vivo activity in intact rat (organ and muscle weight)
Immature Rat CX + DHT = test: animal or person; assay type: in vivo; conditions: rat, in vivo; for In Vivo Anti-A Rat CX + DHT % change vs DHT (CX CONT = −100%) SV / In Vivo Anti-A Rat CX + DHT % change vs DHT (CX CONT = −100%) VP / In Vivo Anti-A Rat CX + DHT % change vs DHT (CX CONT = −100%) Bulbo: po

Row | Compound | Human Androgen Receptor Binding RBA (%) R1881 = 100% (Human Androgen Receptor) | Shionogi cells Antiandrogenic activity Ki OH-Flu/Ki compound [1] | Ki [1] | Rat Androgen Receptor Binding RBA (%) R1881 = 100% (Rat Androgen Receptor) | In Vivo Agonist Rat CX % change vs CX (DHT CONT = +100%) Bulbo (Immature Rat CX) | In Vivo Agonist Rat CX % change vs CX (DHT CONT = +100%) SV (Immature Rat CX) | In Vivo Agonist Rat CX % change vs CX (DHT CONT = +100%) VP (Immature Rat CX) | In Vivo Intact Rat % change vs Intact CONT (Intact CONT = +100%; CX CONT = 0%) Bulbo (Intact Rat; rat, in vivo) | In Vivo Intact Rat % change vs Intact CONT (Intact CONT = +100%; CX CONT = 0%) SZ (Intact Rat; rat, in vivo) | In Vivo Intact Rat % change vs Intact CONT (Intact CONT = +100%; CX CONT = 0%) VP (Intact Rat; rat, in vivo) | % of stim of basal at 10^−7M (% over basal) [1] | % of stim of basal at 10^−7 M (DHT = 100%) [1] | % of inh of DHT at 10^−7 M (Basal = 100%) [1] | In Vivo Anti-A Rat CX + DHT % change vs DHT (CX CONT = −100%) SV (Immature Rat CX + DHT) | In Vivo Anti-A Rat CX + DHT % change vs DHT (CX CONT = −100%) VP (Immature Rat CX + DHT) | also measured
1 | CC12CCC3c4ccc(C#N)c(F)c4CCC3C1CCC2(O)Cc1cc[n+]([O-])cc1F (centres unmarked) [EM-8454] | ~1% | 2.7 | 2.2 nM | ~0.3% | – | – | – | – | – | – | – | – | – | – | – | In Vivo Agonist % Change vs CX (DHT = +100%) SV (Immature Rat CX): 0%; In Vivo Agonist % Change vs CX (DHT = +100%) VP (Immature Rat CX): 0%
2 | CC1CC2(C)C(CCC2(O)Cc2cc[n+]([O-])cc2F)C2CCc3c(ccc(C#N)c3F)C12 (centres unmarked) [EM-6595] | 13% | – | – | – | +97 ± 9% | +14 ± 1% | +28 ± 3% | +162 ± 9% | +40 ± 3% | +67 ± 10% | +117 ± 11% | +43 ± 13% | −58 ± 13% | [−74 ± 3] % | [−56 ± 5] % | –
3 | Cc1c[n+]([O-])ccc1CC1(O)CCC2C3CCc4c(ccc(C#N)c4F)C3CCC21C (centres unmarked) [EM-8505] | ~0.3% | 4.4 | 4.2 nM | ~0.3% | – | – | – | – | – | – | – | – | – | – | – | –
4 | CC[C@H]1C[C@@]2(C)C(CC[C@@]2(O)Cc2ccncc2F)C2CCc3c(ccc(C#N)c3F)C21 (some centres unmarked) [EM-9016] | 2250% and 2250 ± 570% | – | – | – | +66 ± 25% | +17 ± 1% | +13 ± 2% | – | +44 ± 6% | – | +45% | +39% | – | −39 ± 5% | −44 ± 3% | In Vivo Intact Rat % change vs Intact CONT (Intact CONT = +100%; CX CONT = 0%) Bulbo (Intact Rat; 0.1 mg/rat/os/ID, bulbocavernosus muscles weight): +108 ± 21%; In Vivo Intact Rat % change vs Intact CONT (Intact CONT = +100%; CX CONT = 0%) VP (Intact Rat; 0.1 mg/rat/os/ID, prostate weight): +53 ± 6%; inhibition at 0.0003 µM ([1]; Mus musculus, read-out: % of inh of DHT at 10^−7 M (Basal = 100%)): 46%; In Vivo Anti-A Rat CX + DHT % change vs DHT (CX CONT = −100%) Bulbo (Immature Rat CX + DHT): +10 ± 9%
5 | C[C@H]1C[C@@]2(C)C(CC[C@@]2(O)Cc2ccncc2)C2CCc3c(ccc(C#N)c3F)C21 (some centres unmarked) [EM-6582] | 331% | – | – | – | +71 ± 15% | +18 ± 3% | +37 ± 3% | +197 ± 29% | +49 ± 5% | +72 ± 6% | +145 ± 78% | +41 ± 22% | +59 ± 22% | −60 ± 6% | −36 ± 1% | –
6 | CC[C@H]1C[C@@]2(C)C(CC[C@@]2(O)Cc2ccncc2)C2CCc3c(ccc(C#N)c3F)C21 (some centres unmarked) [EM-8986] | 508% | – | – | – | +149 ± 13% | +24 ± 3% | +35 ± 3% | +241 ± 27% | +98 ± 7% | +76 ± 11% | +21% | +9% | +44% | −25 ± 4% | −24 ± 3% | In Vivo Anti-A Rat CX + DHT % change vs DHT (CX CONT = −100%) Bulbo (Immature Rat CX + DHT): +74 ± 13%
7 | Cc1c(C#N)ccc2c1CCC1C2CCC2(C)C1CCC2(O)Cc1cc[n+]([O-])cc1 (centres unmarked) [EM-5985] | 2.0 ± 0.3% | 12 and 12 ± 4 | 0.9 ± 0.2 nM | 0.6% | – | – | – | – | – | – | – | – | – | – | – | In Vivo Agonist % Change vs CX (DHT = +100%) SV (Immature Rat CX): [0] %; In Vivo Agonist % Change vs CX (DHT = +100%) VP (Immature Rat CX): [0] %; affinity for the human compared to the rat androgen receptor (Human Androgen Receptor): approximately 3 fold; activity on the basal level of Shionogi cell proliferation [1]: none of these compounds has any activity; inhibition of DHT-stimulated seminal vesicle weight (Immature Rat CX + DHT): 84%; inhibition of DHT-stimulated ventral prostate weight (Immature Rat CX + DHT): 69%; potency on rat androgen-sensitive parameters relative to currently available antiandrogens (Immature Rat CX + DHT): approximately 5 times
